Consider one molecule from patent US20190110990A1, “LIPOPROTEINS CONTAINING PLATINUM COMPLEXES FOR THE TREATMENT OF CANCER” (UNIVERSITE DE BOURGOGNE, priority 2016, published 2019).

The test system of test [1] is human macrophages. Put plainly: ROS production by M2 macrophages (DHE labelling, flow cytometry). In kind it is cell-based. Conditions: 2 hours, final cisplatin concentration 25 μM, basal (CTL) 8.2%. As for the experimental part: After 7 days of culture in human M-CSF from Miltenyi, Biotec. (Macrophage Colony-Stimulating Factor) at 100 ng/ml, human macrophages were differentiated, from monocytes, into M2 alternative phenotype macrophages (protumoral). […] The production of reactive oxygen species (ROS, representative of an anti-tumour action) by the macrophages was then determined by flow cytometry after labelling with Dihydroethidium (DHE). […] Furthermore, the native HDLs, native LDLs and the LDL-Cis had no effect on ROS production by the macrophages.
The same protocol was repeated so as to compare the effect between the HDL-Cis and the oxidised LDL lipoproteins charged with cisplatin (LDLox+Cis) (see FIG. 2C). […] The oxidised LDLs were obtained by incubating native
LDLs (cholesterol, 1 mM) for 24 hours at 37° C. in the presence of copper sulphate (5 μM). After oxidation, the oxidised LDLs are dialysed in a PBS buffer.

The test system of test [2] is SW480 colorectal cancer lines. The experiment in a line: Cell viability of SW480 cells by flow cytometry. Type of test: cell-based. Conditions: SW480, 48 hours, final cisplatin concentration 25 μM. As for the experimental part:
The cell viability was then evaluated by flow cytometry.

With `N.N.[Cl][Pt][Cl]` [non-vectorised cisplatin, Cis-diamine-dichloro-platinum (II)], in test [1], the “ROS production / macrophage activation” value is given as 18.2%. The molecule further registered a cancer cell mortality in test [2] of 41%.
